Source: PubChem BioAssay (NCI)
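48-hour exposure; five concentrations; linearly interpolated endpoints. The concentration for 50% growth inhibition is given as GI50. TGI: total growth inhibition.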

How the values were obtained:
Assay in all cases: DTP human tumour cell line panel, 48 h
[1] = system: MALME-3M melanoma
[2] = system: UACC-62 melanoma
[3] = system: UACC-257 melanoma
[4] = system: RXF 393 renal
[5] = system: T-47D breast
[6] = system: A498 renal
[7] = system: HOP-92 NSCLC
[8] = system: BT-549 breast
[9] = system: HCT-15 colon
[10] = system: CAKI-1 renal
[11] = system: U251 CNS
[12] = system: HT29 colon
[13] = system: NCI-H460 lung
[14] = system: M14 melanoma
[15] = system: NCI-H522 lung
[16] = system: IGROV1 ovarian
[17] = system: OVCAR-5 ovarian
[18] = system: NCI/ADR-RES ovarian
[19] = system: LOX IMVI melanoma
[20] = system: RPMI-8226 leukemia
[21] = system: SNB-19 CNS
[22] = system: SW-620 colon
[23] = system: MCF7 breast
[24] = system: OVCAR-4 ovarian
[25] = system: MOLT-4 leukemia
[26] = system: MDA-MB-435
[27] = system: HL-60(TB) leukemia
[28] = system: SK-MEL-5 melanoma
[29] = system: HCC-2998 colon
[30] = system: CCRF-CEM leukemia
[31] = system: KM12 colon
[32] = system: SF-268 CNS
[33] = system: OVCAR-3 ovarian
[34] = system: SN12C renal
[35] = system: SNB-75 CNS
[36] = system: SR leukemia
[37] = system: PC-3 prostate
[38] = system: HS 578T breast
[39] = system: 786-0 renal
[40] = system: SF-295 CNS
[41] = system: SK-MEL-2 melanoma
[42] = system: NCI-H226 lung
[43] = system: UO-31 renal
[44] = system: ACHN renal
[45] = system: OVCAR-8 ovarian
[46] = system: COLO 205 colon
[47] = system: SK-OV-3 ovarian
[48] = system: SF-539 CNS
[49] = system: DU-145 prostate
[50] = system: SK-MEL-28 melanoma
[51] = system: HCT-116 colon
[52] = system: K-562 leukemia
[53] = system: MDA-MB-231 breast
[54] = system: TK-10 renal
[55] = system: HOP-62 NSCLC
[56] = system: NCI-H23 lung

Work on COc1ccc(-c2nc(-c3nc4cc(Cl)c(Cl)cc4[nH]3)c3ccccn23)cc1 yielded a GI50 [1] of 2.51 µM, a TGI [1] of 5.85 µM and a GI50 [2] of 5.59 µM. It also gave a TGI [2] greater than 100 µM, a GI50 [3] of 5.77 µM and a TGI [3] greater than 100 µM. It also gave a GI50 [4] of 1.76 µM, a TGI [4] of 4.26 µM and a GI50 [5] of 4.06 µM. The TGI [5] was greater than 100 µM, the GI50 [6] was 4.2 µM and the TGI [6] was greater than 100 µM. The GI50 [7] was 1.82 µM, the TGI [7] was 5.1 µM and the GI50 [8] was 3.08 µM. The TGI [8] was 9.48 µM, the GI50 [9] was 30.1 µM and the TGI [9] was greater than 100 µM. The GI50 [10] was 3.32 µM, the TGI [10] was greater than 100 µM and the GI50 [11] was 3.05 µM. For the same compound, the TGI [11] was greater than 100 µM, the GI50 [12] was 4.42 µM and the TGI [12] was greater than 100 µM. It also gave a GI50 [13] of 3.01 µM, a TGI [13] greater than 100 µM and a GI50 [14] of 4.92 µM. For the same compound, the TGI [14] was greater than 100 µM, the GI50 [15] was 3.37 µM and the TGI [15] was 82 µM. The GI50 [16] was 3.73 µM, the TGI [16] was greater than 100 µM and the GI50 [17] was greater than 100 µM. It also gave a TGI [17] greater than 100 µM, a GI50 [18] of 3.9 µM and a TGI [18] greater than 100 µM. The GI50 [19] was 3.6 µM, the TGI [19] was greater than 100 µM and the GI50 [20] was 3.74 µM. The TGI [20] was greater than 100 µM, the GI50 [21] was 2.64 µM and the TGI [21] was greater than 100 µM. It also gave a GI50 [22] of 8.37 µM, a TGI [22] greater than 100 µM and a GI50 [23] of 7.2 µM. The TGI [23] was greater than 100 µM, the GI50 [24] was 2 µM and the TGI [24] was 4.9 µM. The GI50 [25] was greater than 100 µM, the TGI [25] was greater than 100 µM and the GI50 [26] was 5.77 µM. It also gave a TGI [26] greater than 100 µM, a GI50 [27] greater than 100 µM and a TGI [27] greater than 100 µM. It also gave a GI50 [28] of 2.91 µM, a TGI [28] greater than 100 µM and a GI50 [29] greater than 100 µM. It also gave a TGI [29] greater than 100 µM, a GI50 [30] greater than 100 µM and a TGI [30] greater than 100 µM. It also gave a GI50 [31] greater than 100 µM, a TGI [31] greater than 100 µM and a GI50 [32] of 2.59 µM. For the same compound, the TGI [32] was 6.83 µM, the GI50 [33] was 3.18 µM and the TGI [33] was greater than 100 µM. For the same compound, the GI50 [34] was greater than 100 µM, the TGI [34] was greater than 100 µM and the GI50 [35] was 1.73 µM. It also gave a TGI [35] of 3.23 µM, a GI50 [36] of 6.26 µM and a TGI [36] greater than 100 µM. For the same compound, the GI50 [37] was 2.58 µM, the TGI [37] was greater than 100 µM and the GI50 [38] was 2.68 µM. For the same compound, the TGI [38] was 7.02 µM.
With N#Cc1cnc2ccc(NCc3cnc[nH]3)cc2c1Nc1ccc(F)c(Cl)c1 the GI50 [1] was 11.9 µM, the TGI [1] was 36.1 µM and the GI50 [2] was 13.9 µM. It also gave a TGI [2] of 75 µM, a GI50 [3] of 86 µM and a TGI [3] greater than 100 µM. The GI50 [4] was 7.03 µM, the TGI [4] was greater than 100 µM and the GI50 [5] was 4.68 µM. The TGI [5] was greater than 100 µM, the GI50 [7] was 1.08 µM and the TGI [7] was greater than 100 µM. For the same compound, the GI50 [8] was greater than 100 µM, the TGI [8] was greater than 100 µM and the GI50 [39] was 9.21 µM. It also gave a TGI [39] greater than 100 µM, a GI50 [9] greater than 100 µM and a TGI [9] greater than 100 µM. For the same compound, the GI50 [11] was 8.96 µM, the TGI [11] was greater than 100 µM and the GI50 [40] was 20.1 µM. It also gave a TGI [40] greater than 100 µM, a GI50 [41] of 6.34 µM and a TGI [41] greater than 100 µM. It also gave a GI50 [42] greater than 100 µM, a TGI [42] greater than 100 µM and a GI50 [12] greater than 100 µM. The TGI [12] was greater than 100 µM, the GI50 [43] was 3.52 µM and the TGI [43] was greater than 100 µM. The GI50 [44] was 2.88 µM, the TGI [44] was greater than 100 µM and the GI50 [13] was 10.3 µM. It also gave a TGI [13] greater than 100 µM, a GI50 [14] of 14.3 µM and a TGI [14] greater than 100 µM. It also gave a GI50 [15] of 4.6 µM, a TGI [15] greater than 100 µM and a GI50 [45] of 4.51 µM. It also gave a TGI [45] greater than 100 µM, a GI50 [16] of 2.6 µM and a TGI [16] greater than 100 µM. The GI50 [17] was 18.2 µM, the TGI [17] was greater than 100 µM and the GI50 [46] was greater than 100 µM. It also gave a TGI [46] greater than 100 µM, a GI50 [18] greater than 100 µM and a TGI [18] greater than 100 µM. It also gave a GI50 [19] of 5.62 µM, a TGI [19] greater than 100 µM and a GI50 [47] of 4.2 µM. The TGI [47] was greater than 100 µM, the GI50 [20] was greater than 100 µM and the TGI [20] was greater than 100 µM. The GI50 [21] was 27 µM, the TGI [21] was greater than 100 µM and the GI50 [48] was 14.7 µM. The TGI [48] was greater than 100 µM, the GI50 [22] was 8.69 µM and the TGI [22] was greater than 100 µM. The GI50 [23] was 20.1 µM, the TGI [23] was greater than 100 µM and the GI50 [24] was 2.44 µM. The TGI [24] was greater than 100 µM, the GI50 [25] was greater than 100 µM and the TGI [25] was greater than 100 µM. For the same compound, the GI50 [26] was 14.7 µM, the TGI [26] was 88.5 µM and the GI50 [49] was 2.27 µM. It also gave a TGI [49] greater than 100 µM, a GI50 [50] of 17.3 µM and a TGI [50] of 58.4 µM. For the same compound, the GI50 [51] was 6.85 µM, the TGI [51] was greater than 100 µM and the GI50 [52] was 9.3 µM. It also gave a TGI [52] greater than 100 µM, a GI50 [27] of 15.2 µM and a TGI [27] greater than 100 µM. The GI50 [53] was 17 µM, the TGI [53] was greater than 100 µM and the GI50 [28] was 19 µM. The TGI [28] was greater than 100 µM, the GI50 [29] was greater than 100 µM and the TGI [29] was greater than 100 µM. It also gave a GI50 [54] of 2.77 µM, a TGI [54] of 97.2 µM and a GI50 [55] of 10.5 µM. The TGI [55] was greater than 100 µM, the GI50 [31] was greater than 100 µM and the TGI [31] was greater than 100 µM. The GI50 [32] was 5.97 µM, the TGI [32] was greater than 100 µM and the GI50 [33] was 3.38 µM. It also gave a TGI [33] greater than 100 µM, a GI50 [34] of 4.17 µM and a TGI [34] greater than 100 µM. For the same compound, the GI50 [35] was 11.1 µM, the TGI [35] was 95.8 µM and the GI50 [36] was 5.65 µM. For the same compound, the TGI [36] was greater than 100 µM, the GI50 [56] was greater than 100 µM and the TGI [56] was greater than 100 µM. The GI50 [38] was 4.79 µM and the TGI [38] was greater than 100 µM.
